Consider 28 compounds from patent US20120157471A1, “BENZIMIDAZOLE DERIVATIVES” (PFIZER INC., priority 2009, published 2012).

The structures appear in SMILES notation.

One test concerns Gli-Luc/MEF cells (Smo). As to the kind of experiment: Gli-Luc/MEF assay (Shh-stimulated luciferase reporter under the Gli response element). In kind it is cell-based, mouse. The settings on record: Mus musculus, MEF, 48 h. The method, boiled down: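 Mouse Gli-Luc/MEF cells dosed with compound (3-fold series, […]) plus 2 μg/mL recombinant mouse Shh, then incubated 48 h at 37° C, 5% CO2. Bright-Glo luminescence read; IC50 calculated from inhibition of Shh-stimulated luciferase.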
In general terms: Reporter assays use an easily measured gene product as a stand-in for the process of interest.

The target of test [1] is T1, human Smo (amino acids 181-787) (Homo sapiens, UniProt Q99835).
T1 construct: expressed in transfected cells; membrane preparation
Kind of test: Smo radioligand competition binding assay (displacement of 3H-PF-03451358 from HEK293 membranes). Particulars: for inhibition at 0.05 µM: 0.05 μM test compound, displacement of 3H-PF-03451358, read-out: SMO % inh. @ 0.05 μM; for IC50: radioligand competition binding. The method, boiled down:
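Membranes (40 μg protein/well) from HEK293 expressing murine Igk-leader-fused Smo 181-787 incubated 2 h at room temperature with 3 nM 3H-PF-03451358 in Tris pH 7.5/NaCl/MgCl2/EDTA/BSA buffer; filter-bound counts by scintillation. Nonspecific binding with 30 μM cold PF-03451358; IC50 from four-parameter fit of % inhibition.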
Background: Displacement assays read how much labelled ligand stays bound in the presence of the test substance.

T1 sequence (Q99835 181-787): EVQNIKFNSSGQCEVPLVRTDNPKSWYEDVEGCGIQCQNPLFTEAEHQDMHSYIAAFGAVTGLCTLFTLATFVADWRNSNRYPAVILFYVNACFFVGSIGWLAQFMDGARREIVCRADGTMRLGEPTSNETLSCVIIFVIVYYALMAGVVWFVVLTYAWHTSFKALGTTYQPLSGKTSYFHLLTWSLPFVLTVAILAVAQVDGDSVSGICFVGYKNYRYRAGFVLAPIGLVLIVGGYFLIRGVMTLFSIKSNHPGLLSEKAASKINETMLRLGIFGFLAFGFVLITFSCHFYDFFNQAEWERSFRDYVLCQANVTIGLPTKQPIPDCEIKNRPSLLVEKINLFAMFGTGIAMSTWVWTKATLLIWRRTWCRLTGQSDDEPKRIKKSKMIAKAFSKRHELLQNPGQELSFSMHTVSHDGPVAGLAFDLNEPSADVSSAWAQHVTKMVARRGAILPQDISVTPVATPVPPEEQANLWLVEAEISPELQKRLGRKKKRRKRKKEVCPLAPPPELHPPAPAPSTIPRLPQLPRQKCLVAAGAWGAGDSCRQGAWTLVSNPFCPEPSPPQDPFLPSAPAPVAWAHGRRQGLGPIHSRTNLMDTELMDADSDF

Usually IC50 stands for the concentration at which inhibition is half-maximal. Higher therefore signals weaker potency in that assay. With `Cn1c(-c2cc(N3CCC(CS(C)(=O)=O)CC3)ncc2Cl)nc2cccnc21` [Example A-216, 2-(5-chloro-2-{4-[(methylsulfonyl)methyl]piperidin-1-yl}pyridin-4-yl)-3-methyl-3H-imidazo[4,5-b]pyridine], in the test with Gli-Luc/MEF cells (Smo), inhibition was half-maximal at 7 nM (IC50). Moreover, in test [1], the inhibition at 0.05 µM turned out to be 98% and the IC50 was determined as 10 nM.
On to `CC(=O)N1CCN(c2ccc(Cl)c(-c3nc4ccccc4n3C)n2)CC1` [Example B-2, 2-[6-(4-acetylpiperazin-1-yl)-3-chloropyridin-2-yl]-1-methyl-1H-benzimidazole], for which the IC50 in the test with Gli-Luc/MEF cells (Smo) turned out to be 32 nM; in test [1], 18 nM. Also, the inhibition at 0.05 µM in test [1] is 95%.
In turn, `CNC(=O)N1CCN(c2ccc(Cl)c(-c3nc4ccccc4n3C)n2)CC1` [Example B-3, 4-[5-chloro-6-(1-methyl-1H-benzimidazol-2-yl)pyridin-2-yl]-N-methylpiperazine-1-carboxamide] came in with a 50% inhibitory concentration (IC50) in the test on Gli-Luc/MEF cells (Smo) of 20 nM. In addition, in test [1], the inhibition at 0.05 µM is 88% and the IC50 was found to be 49 nM.
In the case of `Cn1c(-c2nc(N3CCN(C=O)CC3)ccc2Cl)nc2ccccc21` [Example B-5, 4-[5-chloro-6-(1-methyl-1H-benzimidazol-2-yl)pyridin-2-yl]piperazine-1-carbaldehyde], in the test with Gli-Luc/MEF cells (Smo), the IC50 came to 27 nM. Also, in test [1], the inhibition at 0.05 µM came to 92% and the IC50 worked out at 27 nM.
Regarding `Cn1c(-c2nc(N3CCC(O)CC3)ccc2Cl)nc2ccccc21` [Example B-6, 1-[5-chloro-6-(1-methyl-1H-benzimidazol-2-yl)pyridin-2-yl]piperidin-4-ol], the IC50 in the test with Gli-Luc/MEF cells (Smo) was determined as 12 nM. Also, in test [1], the inhibition at 0.05 µM stood at 95% and the IC50 came out at 10 nM.
For `Cn1c(-c2cccc(N3CCN(S(C)(=O)=O)CC3)n2)nc2ccccc21` [Example B-7, 1-methyl-2-{6-[4-(methylsulfonyl)piperazin-1-yl]pyridin-2-yl}-1H-benzimidazole], the IC50 with Gli-Luc/MEF cells (Smo) turned out to be 189 nM; in test [1] it was 97 nM. In test [1], the inhibition at 0.05 µM was 78%.
On to `CC(=O)N1CCN(c2cccc(-c3nc4ccccc4n3C)n2)CC1` [Example B-8, 2-[6-(4-acetylpiperazin-1-yl)pyridin-2-yl]-1-methyl-1H-benzimidazole], for which the IC50 turned out to be 46 nM in the test on Gli-Luc/MEF cells (Smo) and 32 nM in test [1]. Besides, the inhibition at 0.05 µM in test [1] was 90%.
For the compound `COC(=O)N1CCN(c2cccc(-c3nc4ccccc4n3C)n2)CC1` [Example B-9, methyl 4-[6-(1-methyl-1H-benzimidazol-2-yl)pyridin-2-yl]piperazine-1-carboxylate], the concentration for half-maximal inhibition (IC50) in the test on Gli-Luc/MEF cells (Smo) was found to be 143 nM. Also, in test [1], the inhibition at 0.05 µM stood at 82% and the IC50 worked out at 122 nM.
For `CNC(=O)N1CCN(c2cccc(-c3nc4ccccc4n3C)n2)CC1` [Example B-10, N-methyl-4-[6-(1-methyl-1H-benzimidazol-2-yl)pyridin-2-yl]piperazine-1-carboxamide], in that order: 89 nM, 72% and 82 nM.
As to `CC(=O)NC1CCN(c2ccc(Cl)c(-c3nc4ccccc4n3C)n2)CC1` [Example B-11, N-{1-[5-chloro-6-(1-methyl-1H-benzimidazol-2-yl)pyridin-2-yl]piperidin-4-yl}acetamide], the IC50 in the test on Gli-Luc/MEF cells (Smo) was determined as 7 nM; in test [1] it was 16 nM. Further, the inhibition at 0.05 µM in test [1] came to 98%.
The compound `Cn1c(-c2nc(N3CCC(NS(C)(=O)=O)CC3)ccc2Cl)nc2ccccc21` [Example B-12, N-{1-[5-chloro-6-(1-methyl-1H-benzimidazol-2-yl)pyridin-2-yl]piperidin-4-yl}methanesulfonamide] returned an IC50 in the test on Gli-Luc/MEF cells (Smo) of 1 nM. In test [1], the inhibition at 0.05 µM came to 100% and the IC50 was found to be 10 nM.
In turn, `Cc1ccc(N2CCC(NS(C)(=O)=O)CC2)nc1-c1nc2ccccc2n1C` [Example B-13, N-{1-[5-methyl-6-(1-methyl-1H-benzimidazol-2-yl)pyridin-2-yl]piperidin-4-yl}methanesulfonamide] showed an IC50 in the test with Gli-Luc/MEF cells (Smo) of 8.2 nM. For the same compound, in test [1], the inhibition at 0.05 µM is 98% and the IC50 was 11 nM.
`CC(=O)N1CCN(c2ncc(Cl)c(-c3nc4ccccc4n3C)n2)CC1` [Example C-1, 2-[2-(4-Acetylpiperazin-1-yl)-5-chloropyrimidin-4-yl]-1-methyl-1H-benzimidazole]: in the test on Gli-Luc/MEF cells (Smo), the IC50 is 7 nM. For the same compound, in test [1], the inhibition at 0.05 µM was found to be 96% and the IC50 is 12 nM.
Compound `Cn1c(-c2nc(N3CCN(S(C)(=O)=O)CC3)ncc2Cl)nc2ccccc21` [Example C-3, 2-{5-Chloro-2-[4-(methylsulfonyl)piperazin-1-yl]pyrimidin-4-yl}-1-methyl-1H-benzimidazole] displayed an IC50 with Gli-Luc/MEF cells (Smo) of 19 nM. In test [1], the inhibition at 0.05 µM was 96% and the IC50 stood at 9 nM.
For `COC(=O)N1CCN(c2ncc(Cl)c(-c3nc4ccccc4n3C)n2)CC1` [Example C-5, Methyl 4-[5-chloro-4-(1-methyl-1H-benzimidazol-2-yl)pyrimidin-2-yl]piperazine-1-carboxylate], in that order: 9 nM, 96% and 14 nM.
For `CNC(=O)N1CCN(c2ncc(Cl)c(-c3nc4ccccc4n3C)n2)CC1` [Example C-7, 4-[5-Chloro-4-(1-methyl-1H-benzimidazol-2-yl)pyrimidin-2-yl]-N-methylpiperazine-1-carboxamide], in that order: 18 nM, 95% and 14 nM.
`CNC(=O)N1CCN(c2nccc(-c3nc4ccccc4n3C)n2)CC1` [Example C-8, N-Methyl-4-[4-(1-methyl-1H-benzimidazol-2-yl)pyrimidin-2-yl]piperazine-1-carboxamide] displayed an IC50 with Gli-Luc/MEF cells (Smo) of 408 nM. Besides, in test [1], the inhibition at 0.05 µM was determined as 54% and the IC50 was found to be 538 nM.
`Cn1c(-c2nc(N3CCC(NS(C)(=O)=O)CC3)ncc2Cl)nc2ccccc21` [Example C-9, N-{1-[5-chloro-4-(1-methyl-1H-benzimidazol-2-yl)pyrimidin-2-yl]piperidin-4-yl}methanesulfonamide]: the IC50 with Gli-Luc/MEF cells (Smo) was 2 nM; in test [1] it was 6 nM. The inhibition at 0.05 µM in test [1] was determined as 100%.
Turning to `Cn1c(-c2ccnc(N3CCC(NS(C)(=O)=O)CC3)n2)nc2ccccc21` [Example C-10, N-{1-[4-(1-methyl-1H-benzimidazol-2-yl)pyrimidin-2-yl]piperidin-4-yl}methanesulfonamide], the IC50 is 57 nM with Gli-Luc/MEF cells (Smo) and 44 nM in test [1]. Besides, the inhibition at 0.05 µM in test [1] came to 97%.
On to `Cn1c(-c2nc(N3CCC(O)CC3)ncc2Cl)nc2ccccc21` [Example C-11, 1-[5-chloro-4-(1-methyl-1H-benzimidazol-2-yl)pyrimidin-2-yl]piperidin-4-ol], for which the IC50 in the test with Gli-Luc/MEF cells (Smo) is 24 nM; in test [1], 16 nM. Also, the inhibition at 0.05 µM in test [1] stood at 98%.
As for `Cn1c(-c2nc(N3CCOCC3)ncc2Cl)nc2ccccc21` [Example C-12, 2-(5-chloro-2-morpholin-4-ylpyrimidin-4-yl)-1-methyl-1H-benzimidazole], it took 60 nM to reach half-maximal inhibition in the test with Gli-Luc/MEF cells (Smo) (IC50). Besides, in test [1], the inhibition at 0.05 µM stood at 93% and the IC50 is 47 nM.
Take `Cn1c(-c2nc(N3CCC(S(C)(=O)=O)CC3)ncc2Cl)nc2ccccc21` [Example C-14, 2-{5-chloro-2-[4-(methylsulfonyl)piperidin-1-yl]pyrimidin-4-yl}-1-methyl-1H-benzimidazole]: the IC50 in the test with Gli-Luc/MEF cells (Smo) was 37 nM. Further, in test [1], the inhibition at 0.05 µM is 90% and the IC50 is 43 nM.
With `CN(C)CC(=O)N1CCN(c2ncc(Cl)c(-c3nc4ccccc4n3C)n2)CC1` [Example C-15, 2-{4-[5-chloro-4-(1-methyl-1H-benzimidazol-2-yl)pyrimidin-2-yl]piperazin-1-yl}-N,N-dimethyl-2-oxoethanamine], the IC50 in the test with Gli-Luc/MEF cells (Smo) came out at 8.9 nM; in test [1], 64 nM. The inhibition at 0.05 µM in test [1] came out at 95%.
On the same counts, the results for `COCC(=O)N1CCN(c2ncc(Cl)c(-c3nc4ccccc4n3C)n2)CC1` [Example C-16, 2-{5-chloro-2-[4-(methoxyacetyl)piperazin-1-yl]pyrimidin-4-yl}-1-methyl-1H-benzimidazole] are 12.7 nM, 14 nM and 99%.
Consider `Cn1c(-c2nc(N3CCN(C(=O)CCO)CC3)ncc2Cl)nc2ccccc21` [Example C-17, 3-{4-[5-chloro-4-(1-methyl-1H-benzimidazol-2-yl)pyrimidin-2-yl]piperazin-1-yl}-3-oxopropan-1-ol], for which the IC50 in the test on Gli-Luc/MEF cells (Smo) was 17.2 nM. Also, the inhibition at 0.05 µM in test [1] was 98%.
In turn, `Cn1c(-c2nc(N3CCN(C(=O)CO)CC3)ncc2Cl)nc2ccccc21` [Example C-18, 2-{4-[5-chloro-4-(1-methyl-1H-benzimidazol-2-yl)pyrimidin-2-yl]piperazin-1-yl}-2-oxoethanol] returned a half-maximal inhibitory concentration (IC50) with Gli-Luc/MEF cells (Smo) of 36 nM. In addition, in test [1], the inhibition at 0.05 µM worked out at 98% and the half-inhibitory concentration (IC50) was found to be 15 nM.
With `CC(=O)N1CCN(c2cc(-c3nc4ccccc4n3C)c(F)cn2)CC1` [Example D-1, 2-[2-(4-acetylpiperazin-1-yl)-5-fluoropyridin-4-yl]-1-methyl-1H-benzimidazole], it took 27 nM to reach half-maximal inhibition in the test with Gli-Luc/MEF cells (Smo) (IC50). Besides, in test [1], the inhibition at 0.05 µM was 97% and the IC50 turned out to be 22 nM.
Consider `COC(=O)N1CCN(c2cc(-c3nc4ccccc4n3C)c(F)cn2)CC1` [Example D-2, methyl 4-[5-fluoro-4-(1-methyl-1H-benzimidazol-2-yl)pyridin-2-yl]piperazine-1-carboxylate], for which the IC50 in the test with Gli-Luc/MEF cells (Smo) was found to be 13 nM. Besides, in test [1], the inhibition at 0.05 µM is 95% and the half-maximal inhibitory concentration (IC50) came to 13 nM.
